Laboratory results from ChEMBL document CHEMBL6127119 (J Med Chem, 2024).
Values after ≈ are worked out from the molar mass of the structure shown.

Assays:
Format in all cases: functional
Details in all cases: time 16-24 hrs
[1] = system: Enterococcus faecium; assay: Antibacterial activity against vancomycin-resistant Enterococcus faecium harboring VanM phenotype incubated for 16 to 24 hrs by CLSI based broth microdilution method
[2] = system: Enterococcus faecium; assay: Antibacterial activity against vancomycin-resistant Enterococcus faecium harboring VanB phenotype incubated for 16 to 24 hrs by CLSI based broth microdilution method
[3] = system: Staphylococcus aureus; assay: Antibacterial activity against vancomycin-intermediate Staphylococcus aureus incubated for 16 to 24 hrs by CLSI based broth microdilution method
[4] = system: Escherichia coli; assay: Antibacterial activity against Escherichia coli AB1157 incubated for 16 to 24 hrs by CLSI based broth microdilution method
[5] = system: Enterococcus faecium; assay: Antibacterial activity against vancomycin-resistant Enterococcus faecium harboring VanA phenotype incubated for 16 to 24 hrs by CLSI based broth microdilution method
[6] = system: Klebsiella pneumoniae; assay: Antibacterial activity against Klebsiella pneumoniae clinical isolate incubated for 16 to 24 hrs by CLSI based broth microdilution method
[7] = system: Acinetobacter baumannii; assay: Antibacterial activity against Carbapenem-resistant Acinetobacter baumannii clinical isolate incubated for 16 to 24 hrs by CLSI based broth microdilution method
[8] = system: Staphylococcus aureus; assay: Antibacterial activity against methicillin-susceptible Staphylococcus aureus incubated for 16 to 24 hrs by CLSI based broth microdilution method
[9] = system: Pseudomonas aeruginosa; assay: Antibacterial activity against Pseudomonas aeruginosa PAO1 incubated for 16 to 24 hrs by CLSI based broth microdilution method

SMILES	MIC [1]	MIC [2]	MIC [3]	MIC [4]	MIC [5]	MIC [6]	MIC [7]	MIC [8]	MIC [9]
CC(C)C[C@H](C(=O)N[C@H]1C(=O)N[C@@H](CC(N)=O)C(=O)N[C@H]2C(=O)N[C@H]3C(=O)N[C@H](C(=O)N[C@H](C(=O)O)c4cc(O)cc(O)c4-c4cc3ccc4O)[C@H](O)c3ccc(c(Cl)c3)Oc3cc2cc(c3O[C@@H]2O[C@H](CO)[C@@H](O)[C@H](O)[C@H]2O[C@H]2C[C@](C)(N)[C@H](O)[C@H](C)O2)Oc2ccc(cc2Cl)[C@H]1O)N(C)Cc1ccc(-c2ccc(CCNC(=N)N)cc2)cc1	32 µg/mL (≈ 18.8 µM)	32 µg/mL (≈ 18.8 µM)	4 µg/mL (≈ 2.35 µM)	> 128 µg/mL	32 µg/mL (≈ 18.8 µM)	> 128 µg/mL	> 128 µg/mL	2 µg/mL (≈ 1.18 µM)	
CC(C)C[C@@H](N)C(=O)N[C@H]1C(=O)N[C@@H](CC(N)=O)C(=O)N[C@H]2C(=O)N[C@H]3C(=O)N[C@H](C(=O)N[C@H](C(=O)NCCOCCOCCNC(=N)N)c4cc(O)cc(O)c4-c4cc3ccc4O)[C@H](O)c3ccc(c(Cl)c3)Oc3cc2cc(c3O[C@@H]2O[C@H](CO)[C@@H](O)[C@H](O)[C@H]2O[C@H]2C[C@](C)(N)[C@H](O)[C@H](C)O2)Oc2ccc(cc2Cl)[C@H]1O	64 µg/mL (≈ 39.8 µM)	64 µg/mL (≈ 39.8 µM)	4 µg/mL (≈ 2.49 µM)	16 µg/mL (≈ 9.95 µM)	32 µg/mL (≈ 19.9 µM)	> 128 µg/mL	> 128 µg/mL	1 µg/mL (≈ 0.622 µM)	> 128 µg/mL
CN[C@H](CC(C)C)C(=O)N[C@H]1C(=O)N[C@@H](CC(N)=O)C(=O)N[C@H]2C(=O)N[C@H]3C(=O)N[C@H](C(=O)N[C@H](C(=O)NCCc4ccc(-c5ccc(CN)cc5)cc4)c4cc(O)cc(O)c4-c4cc3ccc4O)[C@H](O)c3ccc(c(Cl)c3)Oc3cc2cc(c3O[C@@H]2O[C@H](CO)[C@@H](O)[C@H](O)[C@H]2O[C@H]2C[C@](C)(N)[C@H](O)[C@H](C)O2)Oc2ccc(cc2Cl)[C@H]1O		8 µg/mL (≈ 4.83 µM)	1 µg/mL (≈ 0.603 µM)	16 µg/mL (≈ 9.65 µM)	8 µg/mL (≈ 4.83 µM)	> 128 µg/mL	32 µg/mL (≈ 19.3 µM)	0.25 µg/mL (≈ 0.151 µM)	
CN[C@H](CC(C)C)C(=O)N[C@H]1C(=O)N[C@@H](CC(N)=O)C(=O)N[C@H]2C(=O)N[C@H]3C(=O)N[C@H](C(=O)N[C@H](C(=O)O)c4cc(O)c(CNCCCCCCCCN)c(O)c4-c4cc3ccc4O)[C@H](O)c3ccc(c(Cl)c3)Oc3cc2cc(c3O[C@@H]2O[C@H](CO)[C@@H](O)[C@H](O)[C@H]2O[C@H]2C[C@](C)(N)[C@H](O)[C@H](C)O2)Oc2ccc(cc2Cl)[C@H]1O	128 µg/mL (≈ 79.7 µM)	32 µg/mL (≈ 19.9 µM)	8 µg/mL (≈ 4.98 µM)	128 µg/mL (≈ 79.7 µM)	128 µg/mL (≈ 79.7 µM)	> 128 µg/mL	128 µg/mL (≈ 79.7 µM)	4 µg/mL (≈ 2.49 µM)	128 µg/mL (≈ 79.7 µM)
CN[C@H](CC(C)C)C(=O)N[C@H]1C(=O)N[C@@H](CC(N)=O)C(=O)N[C@H]2C(=O)N[C@H]3C(=O)N[C@H](C(=O)N[C@H](C(=O)O)c4cc(O)cc(O)c4-c4cc3ccc4O)[C@H](O)c3ccc(c(Cl)c3)Oc3cc2cc(c3O[C@@H]2O[C@H](CO)[C@@H](O)[C@H](O)[C@H]2O[C@H]2C[C@](C)(NCc3ccc(-c4ccc(CN)cc4)cc3)[C@H](O)[C@H](C)O2)Oc2ccc(cc2Cl)[C@H]1O		16 µg/mL (≈ 9.73 µM)	2 µg/mL (≈ 1.22 µM)	64 µg/mL (≈ 38.9 µM)	16 µg/mL (≈ 9.73 µM)	> 128 µg/mL	128 µg/mL (≈ 77.8 µM)	0.25 µg/mL (≈ 0.152 µM)	
CC(=O)NC[C@H]1CN(c2ccc(N3CCOCC3)c(F)c2)C(=O)O1 [LINEZOLID]	2 µg/mL (≈ 5.93 µM)	2 µg/mL (≈ 5.93 µM)		128 µg/mL (≈ 379 µM)	1 µg/mL (≈ 2.96 µM)	> 128 µg/mL	128 µg/mL (≈ 379 µM)		> 128 µg/mL
CC(C)C[C@@H](N)C(=O)N[C@H]1C(=O)N[C@@H](CC(N)=O)C(=O)N[C@H]2C(=O)N[C@H]3C(=O)N[C@H](C(=O)N[C@H](C(=O)NCc4ccc(CN)cc4)c4cc(O)cc(O)c4-c4cc3ccc4O)[C@H](O)c3ccc(c(Cl)c3)Oc3cc2cc(c3O[C@@H]2O[C@H](CO)[C@@H](O)[C@H](O)[C@H]2O[C@H]2C[C@](C)(N)[C@H](O)[C@H](C)O2)Oc2ccc(cc2Cl)[C@H]1O	64 µg/mL (≈ 41.2 µM)	64 µg/mL (≈ 41.2 µM)	1 µg/mL (≈ 0.644 µM)	16 µg/mL (≈ 10.3 µM)	128 µg/mL (≈ 82.4 µM)		64 µg/mL (≈ 41.2 µM)	1 µg/mL (≈ 0.644 µM)	
CC(C)C[C@H](C(=O)N[C@H]1C(=O)N[C@@H](CC(N)=O)C(=O)N[C@H]2C(=O)N[C@H]3C(=O)N[C@H](C(=O)N[C@H](C(=O)O)c4cc(O)cc(O)c4-c4cc3ccc4O)[C@H](O)c3ccc(c(Cl)c3)Oc3cc2cc(c3O[C@@H]2O[C@H](CO)[C@@H](O)[C@H](O)[C@H]2O[C@H]2C[C@](C)(N)[C@H](O)[C@H](C)O2)Oc2ccc(cc2Cl)[C@H]1O)N(C)Cc1ccc(-c2ccc(CNC(=N)N)cc2)cc1	32 µg/mL (≈ 19 µM)	32 µg/mL (≈ 19 µM)	4 µg/mL (≈ 2.37 µM)	> 128 µg/mL	32 µg/mL (≈ 19 µM)	> 128 µg/mL	> 128 µg/mL	1 µg/mL (≈ 0.593 µM)	
CC(C)C[C@H](C(=O)N[C@H]1C(=O)N[C@@H](CC(N)=O)C(=O)N[C@H]2C(=O)N[C@H]3C(=O)N[C@H](C(=O)N[C@H](C(=O)O)c4cc(O)cc(O)c4-c4cc3ccc4O)[C@H](O)c3ccc(c(Cl)c3)Oc3cc2cc(c3O[C@@H]2O[C@H](CO)[C@@H](O)[C@H](O)[C@H]2O[C@H]2C[C@](C)(N)[C@H](O)[C@H](C)O2)Oc2ccc(cc2Cl)[C@H]1O)N(C)Cc1ccc(-c2ccc(CCN)cc2)cc1	64 µg/mL (≈ 38.6 µM)	64 µg/mL (≈ 38.6 µM)	8 µg/mL (≈ 4.82 µM)	> 128 µg/mL	64 µg/mL (≈ 38.6 µM)	> 128 µg/mL	> 128 µg/mL	1 µg/mL (≈ 0.603 µM)	
CN[C@H](CC(C)C)C(=O)N[C@H]1C(=O)N[C@@H](CC(N)=O)C(=O)N[C@H]2C(=O)N[C@H]3C(=O)N[C@H](C(=O)N[C@H](C(=O)O)c4cc(O)cc(O)c4-c4cc3ccc4O)[C@H](O)c3ccc(c(Cl)c3)Oc3cc2cc(c3O[C@@H]2O[C@H](CO)[C@@H](O)[C@H](O)[C@H]2O[C@H]2C[C@](C)(NCc3ccc(-c4ccc(CNC(=N)N)cc4)cc3)[C@H](O)[C@H](C)O2)Oc2ccc(cc2Cl)[C@H]1O		4 µg/mL (≈ 2.37 µM)	2 µg/mL (≈ 1.19 µM)	64 µg/mL (≈ 37.9 µM)	4 µg/mL (≈ 2.37 µM)	> 128 µg/mL	64 µg/mL (≈ 37.9 µM)	0.125 µg/mL (≈ 0.0741 µM)	
CC(C)C[C@H](C(=O)N[C@H]1C(=O)N[C@@H](CC(N)=O)C(=O)N[C@H]2C(=O)N[C@H]3C(=O)N[C@H](C(=O)N[C@H](C(=O)O)c4cc(O)cc(O)c4-c4cc3ccc4O)[C@H](O)c3ccc(c(Cl)c3)Oc3cc2cc(c3O[C@@H]2O[C@H](CO)[C@@H](O)[C@H](O)[C@H]2O[C@H]2C[C@](C)(N)[C@H](O)[C@H](C)O2)Oc2ccc(cc2Cl)[C@H]1O)N(C)Cc1ccc(-c2ccc(CN)cc2)cc1	64 µg/mL (≈ 38.9 µM)	64 µg/mL (≈ 38.9 µM)	8 µg/mL (≈ 4.86 µM)	> 128 µg/mL	64 µg/mL (≈ 38.9 µM)	> 128 µg/mL	> 128 µg/mL	1 µg/mL (≈ 0.608 µM)	
CN[C@H](CC(C)C)C(=O)N[C@H]1C(=O)N[C@@H](CC(N)=O)C(=O)N[C@H]2C(=O)N[C@H]3C(=O)N[C@H](C(=O)N[C@H](C(=O)NCc4ccc(-c5ccc(CN)cc5)cc4)c4cc(O)cc(O)c4-c4cc3ccc4O)[C@H](O)c3ccc(c(Cl)c3)Oc3cc2cc(c3O[C@@H]2O[C@H](CO)[C@@H](O)[C@H](O)[C@H]2O[C@H]2C[C@](C)(N)[C@H](O)[C@H](C)O2)Oc2ccc(cc2Cl)[C@H]1O		8 µg/mL (≈ 4.87 µM)	1 µg/mL (≈ 0.608 µM)	16 µg/mL (≈ 9.74 µM)	8 µg/mL (≈ 4.87 µM)	> 128 µg/mL	32 µg/mL (≈ 19.5 µM)	≤ 0.063 µg/mL	
CN[C@H](CC(C)C)C(=O)N[C@H]1C(=O)N[C@@H](CC(N)=O)C(=O)N[C@H]2C(=O)N[C@H]3C(=O)N[C@H](C(=O)N[C@H](C(=O)O)c4cc(O)cc(O)c4-c4cc3ccc4O)[C@H](O)c3ccc(c(Cl)c3)Oc3cc2cc(c3O[C@@H]2O[C@H](CO)[C@@H](O)[C@H](O)[C@H]2O[C@H]2C[C@](C)(NCc3ccc(-c4ccc(CCNC(=N)N)cc4)cc3)[C@H](O)[C@H](C)O2)Oc2ccc(cc2Cl)[C@H]1O		4 µg/mL (≈ 2.35 µM)	2 µg/mL (≈ 1.18 µM)	64 µg/mL (≈ 37.6 µM)	8 µg/mL (≈ 4.7 µM)	> 128 µg/mL	64 µg/mL (≈ 37.6 µM)	0.125 µg/mL (≈ 0.0735 µM)	
CN[C@H](CC(C)C)C(=O)N[C@H]1C(=O)N[C@@H](CC(N)=O)C(=O)N[C@H]2C(=O)N[C@H]3C(=O)N[C@H](C(=O)N[C@H](C(=O)NCc4ccc(-c5ccc(CCN)cc5)cc4)c4cc(O)cc(O)c4-c4cc3ccc4O)[C@H](O)c3ccc(c(Cl)c3)Oc3cc2cc(c3O[C@@H]2O[C@H](CO)[C@@H](O)[C@H](O)[C@H]2O[C@H]2C[C@](C)(N)[C@H](O)[C@H](C)O2)Oc2ccc(cc2Cl)[C@H]1O	8 µg/mL (≈ 4.83 µM)	4 µg/mL (≈ 2.41 µM)	1 µg/mL (≈ 0.603 µM)	16 µg/mL (≈ 9.65 µM)	8 µg/mL (≈ 4.83 µM)	> 128 µg/mL	32 µg/mL (≈ 19.3 µM)	1 µg/mL (≈ 0.603 µM)	
CC(C)C[C@@H](N)C(=O)N[C@H]1C(=O)N[C@@H](CC(N)=O)C(=O)N[C@H]2C(=O)N[C@H]3C(=O)N[C@H](C(=O)N[C@H](C(=O)NCc4ccc(CNC(=N)N)cc4)c4cc(O)cc(O)c4-c4cc3ccc4O)[C@H](O)c3ccc(c(Cl)c3)Oc3cc2cc(c3O[C@@H]2O[C@H](CO)[C@@H](O)[C@H](O)[C@H]2O[C@H]2C[C@](C)(N)[C@H](O)[C@H](C)O2)Oc2ccc(cc2Cl)[C@H]1O	16 µg/mL (≈ 10 µM)	8 µg/mL (≈ 5.01 µM)	1 µg/mL (≈ 0.627 µM)	8 µg/mL (≈ 5.01 µM)	16 µg/mL (≈ 10 µM)		32 µg/mL (≈ 20.1 µM)	0.25 µg/mL (≈ 0.157 µM)	
CN[C@H](CC(C)C)C(=O)N[C@H]1C(=O)N[C@@H](CC(N)=O)C(=O)N[C@H]2C(=O)N[C@H]3C(=O)N[C@H](C(=O)N[C@H](C(=O)O)c4cc(O)cc(O)c4-c4cc3ccc4O)[C@H](O)c3ccc(c(Cl)c3)Oc3cc2cc(c3O[C@@H]2O[C@H](CO)[C@@H](O)[C@H](O)[C@H]2O[C@H]2C[C@](C)(NCc3ccc(-c4ccc(CCN)cc4)cc3)[C@H](O)[C@H](C)O2)Oc2ccc(cc2Cl)[C@H]1O		8 µg/mL (≈ 4.82 µM)	2 µg/mL (≈ 1.21 µM)	64 µg/mL (≈ 38.6 µM)	16 µg/mL (≈ 9.65 µM)	> 128 µg/mL	64 µg/mL (≈ 38.6 µM)	0.25 µg/mL (≈ 0.151 µM)	
